# Patent US20060166941A1, “Treatment and/or prevention of non-viral epithelial damage” (Epistem Limited, priority 2003, published 2006)
# Several values for one entry are separate records, joined by “and”; a condition that tells them apart may be missing. Identical values can stand only once. Counter-ions that a name gives are not always drawn.
# Legend:
# intestinal crypt cells = experiment: Epithelial cell kinetic evaluation following oral administration (BrdUrd labelling, tolerability); format: in vivo; details: 500 mg/kg oral gavage once a day for 4 days
# Description: Epithelial Cell Kinetic Evaluation Following Oral Administration of Foscarnet Phosphonoformic Acid Trisodium Salt Hexahydrate).
# Intestinal epithelial cell stimulation following an oral application of foscarnet (phosphonoformic acid trisodium salt hexahydrate) was illustrated by the following experiment.
# Two experimental groups, each of three mice, were established as set out below:
# Group 1: Received oral gavage, containing 500 mg foscarnet/kilogram bodyweight, in sterile water, once a day for 4 days. On the fifth day the animals received a pulse of 10 mg Bromodeoxyuridine (BrdUrd) and 40 minutes laster were killed and small intestine and kidneys harvested for analysis.
# Group 2: Received oral gavage of sterile water, once a day for 4 days On the fifth day the animals received a pulse of 10 mg Bromodeoxyuridine and 40 minutes laster were killed and small intestine and kidneys harvested for analysis.
# Slides were immunohistochemically labelled for BrdUrd and counterstained with thionin to assess intestinal epithelial cell kinetic changes with oral administration of foscarnet. To assess epithelial cell kinetic changes, 50 small intestinal crypts per animal were quantified on a cell positional basis for the number of positively labelled S-phase cells at each cell position in the crypt. Quantification starts at the bottom of the crypt (cell position 1) and continues up one side of the crypt assessing each cell in turn to the crypt villus junction.
# [1] = test system: clonogenic stem cells of the digestive epithelium; experiment: In vivo protection of intestinal epithelium clonogenic stem cells, chemotherapy drug (5-Flurouracil) damage; set-up: species or system mice
# Description: In Vivo Protection of Intestinal Epithelium Clonogenic Stem Cells—Chemotherapy Drug Damage.
# The ability of foscarnet (phosphonoformic acid trisodium salt hexahydrate) to prevent cytotoxic damage to clonogenic stem cells of the digestive epithelium was illustrated by the following experiment.
# The model of cytotoxic insult used was treatment with 2 doses of 5-Flurouracil 6 hours apart at either 400 mg or 500 mg of 5-Fluorouracil/kilogram bodyweight. Such cytotoxic treatment provides a model of chemotherapy administered to patients undergoing treatment for cancer.
# Five experimental groups, each of five mice, were established as set out below:
# Group 1: Received intra-peritoneal injection, containing 50 mg foscarnet/kilogram bodyweight, in sterile water, one hour prior to the first cytotoxic treatment (400 mg 5-Flurouracil/kilogram bodyweight). Received one further identical injection on each of the three days following cytotoxic treatment. […]
# Group 3: Vehicle control. Received intra-peritoneal injection, of sterile water, one hour prior to both cytotoxic treatments (400 mg 5-Flurouracil/kilogram bodyweight). Received one further identical injection on each of the three days following cytotoxic treatment. […]
# (§1) On the fourth day after treatment the animals of each group were killed, and intestinal tissue harvested for histological analysis. Tissue sections were stained with haemotoxylin and eosin, and were analysed for the presence of regenerating intestinal crypts. Regenerating intestinal crypts are derived from one or more surviving clonogenic stem cells, whereas sterilised crypts (containing no surviving stem cells) disappear within two days of irradiation. The number of regenerating crypts per intestinal circumference was counted, and the mean crypt width measured. Scores for each animal were then corrected to account for the probability of preferentially scoring larger crypts according to the following equation: [formula]
# (§2) For each treatment a Protection Factor was calculated using the following equation: corrected crypts/circumference treated corrected crypts/circumference untreated (vehicle)
# [2] = test system: clonogenic stem cells of the digestive epithelium; experiment: In vivo protection of intestinal epithelium clonogenic stem cells, radiation damage, independent experiment 1 (regenerating crypts); set-up: species or system mice; details: for corrected crypts/circumference / no. crypts/circumference: day 4; for Protection Factor: 13Gy, corrected crypts treated / vehicle
# Description: In Vivo Protection of Intestinal Epithelium Clonogenic Stem Cells—Radiation Damage Independent Experiment 1.
# (§3) The ability of foscarnet (phosphonoformic acid trisodium salt hexahydrate) to prevent radiological damage to clonogenic stem cells of the digestive epithelium was illustrated by the following experiment.
# (§4) The model of radiological insult used was treatment with 13 Gy X-ray whole body radiation at a dose rate of 0.7 Gy/minute. Such radiation treatment provides a model of radiotherapy administered to patients undergoing treatment for cancer.
# Four experimental groups, each of six mice, were established as set out below:
# (§5) Group 1: Received intra-peritoneal injection, containing 50 mg foscarnet/kilogram bodyweight, in sterile water, one hour prior to radiation treatment. Received one further identical injection on each of the three days following radiation treatment.
# Group 2: Received intra-peritoneal injection, containing 100 mg foscarnet/kilogram bodyweight, in sterile water, one hour prior to radiation treatment. Received one further identical injection on each of the three days following radiation treatment.
# (§6) Group 3: Vehicle control. Received intra-peritoneal injection, of sterile water, one hour prior to radiation treatment. Received one further identical injection on each of the three days following radiation treatment.
# Group 4: Untreated controls. Received neither injections nor exposure to radiation.
# as §1, §2
# [3] = test system: clonogenic stem cells of the digestive epithelium; experiment: In vivo protection of intestinal epithelium clonogenic stem cells, radiation damage, independent experiment 2; set-up: species or system mice; details: for corrected crypts/circumference / no. crypts/circumference: day 4; for Protection Factor: 13Gy, corrected crypts treated / vehicle
# Description: In Vivo Protection of Intestinal Epithelium Clonogenic Stem Cells—Radiation Damage Independent Experiment 2.
# as §3, §4
# Three experimental groups, each of six mice, were established as set out below:
# as §5
# Group 2: Received intra-peritoneal injection, containing 25 mg foscarnet/kilogram bodyweight, in sterile water, one hour prior to radiation treatment. Received one further identical injection on each of the three days following radiation treatment.
# as §6, §1, §2
# [4] = 50 mg foscarnet 1 hr prior to 1st dose of 5-Flurouracil (400 mg/kg x 2 6 hrs apart) and D1, D2, D3, group Average
# [5] = 50 mg foscarnet 1 hr prior to 1st dose of 5-Flurouracil (400 mg/kg x 2 6 hrs apart) and D1, D2, D3, individual mice
# [6] = 50 mg foscarnet 1 hr prior to both doses of 5-Flurouracil (400 mg/kg x 2 6 hrs apart) and D1, D2, D3, group Average
# [7] = 50 mg foscarnet 1 hr prior to both doses of 5-Flurouracil (400 mg/kg x 2 6 hrs apart) and D1, D2, D3, individual mice
# [8] = 50 mg foscarnet 1 hr prior to both doses of 5-Flurouracil (500 mg/kg x 2 6 hrs apart) and D1, D2, D3, group Average
# [9] = 50 mg foscarnet 1 hr prior to both doses of 5-Flurouracil (500 mg/kg x 2 6 hrs apart) and D1, D2, D3, individual mice
# [10] = group 1: 50 mg/kg foscarnet 1 hr prior to first 5-Flurouracil dose (400 mg/kg x 2) and 3 days after
# [11] = 13Gy plus 50 mg foscarnet -1 hr, 1, 2, 3 day, group Average
# [12] = 13Gy plus 50 mg foscarnet -1 hr, 1, 2, 3 day, individual mice
# [13] = 13Gy plus 100 mg foscarnet -1 hr, 1, 2, 3 day, group Average
# [14] = 13Gy plus 100 mg foscarnet -1 hr, 1, 2, 3 day, individual mice
# [15] = 50 mg foscarnet -1 hr, 1, 2, 3 day
# [16] = 13Gy plus 25 mg foscarnet -1 hr, 1, 2, 3 day, group Average
# [17] = 13Gy plus 25 mg foscarnet -1 hr, 1, 2, 3 day, individual mice
smiles,measurement,setting,value
"O=C(O)P(=O)(O)O [foscarnet, phosphonoformic acid trisodium salt hexahydrate]",deaths or signs of illness,intestinal crypt cells,no deaths or signs of illness
same,tolerability of relatively high oral doses,intestinal crypt cells,tolerated without notable toxicity
same,kidney damage judged by histological sectioning,intestinal crypt cells; end of treatment period,neither of the groups showed overt signs of kidney damage
same,BrdUrd labelling index in intestinal crypt cells (FIG. 5),intestinal crypt cells; versus vehicle control,stimulating effect on intestinal crypt cells
same,Protection Factor,"[1]; 50 mg foscarnet 1 hr prior to 1st dose of 5-Flurouracil (400 mg/kg x 2 6 hrs apart) and D1, D2 & D3",1.87
same,corrected crypts/circumference,[1]; [4],20.0
same,no. crypts/circumference,[1]; [4],21.5
same,corrected crypts/circumference,[1]; [5],11.0 and 23.2 and 17.2 and 16.5 and 32.1
same,no. crypts/circumference,[1]; [5],12.4 and 24.1 and 17.9 (2×) and 35.2
same,Protection Factor,"[1]; 50 mg foscarnet 1 hr prior to both doses of 5-Flurouracil (400 mg/kg x 2 6 hrs apart) and D1, D2 & D3",1.59
same,corrected crypts/circumference,[1]; [6],17.0
same,no. crypts/circumference,[1]; [6],18.1
same,corrected crypts/circumference,[1]; [7],14.3 and 16.3 and 20.6 and 11.4 and 22.5
same,no. crypts/circumference,[1]; [7],15.9 and 16.8 and 22.8 and 11.4 and 23.4
same,Protection Factor,"[1]; 50 mg foscarnet 1 hr prior to both doses of 5-Flurouracil (500 mg/kg x 2 6 hrs apart) and D1, D2 & D3",1.46
same,corrected crypts/circumference,[1]; [8],10.2
same,no. crypts/circumference,[1]; [8],10.5
same,corrected crypts/circumference,[1]; [9],8.5 and 13.0 and 16.3 and 5.6 and 7.6
same,no. crypts/circumference,[1]; [9],8.5 and 13.0 and 17.9 and 6.0 and 7.3
same,numbers of intestinal crypts after exposure to 5-Flurouracil,"[1]; Groups 1, 2 and 4 (50 mg foscarnet/kg regimens)",increased numbers of intestinal crypts
same,more crypts compared to mice treated with vehicle alone,[1]; [10],~50%
same,more small intestinal clonogenic stem cells survived,[1]; [10],at least 50%
same,corrected crypts/circumference,[2]; [11],3.8
same,no. crypts/circumference,[2]; [11],6.8
same,corrected crypts/circumference,[2]; [12],2.6 and 6.1 and 3.6 and 4.3 and 2.5
same,no. crypts/circumference,[2]; [12],4.8 and 10.7 and 6.6 and 7.2 and 4.5
same,corrected crypts/circumference,[2]; [13],3.2
same,no. crypts/circumference,[2]; [13],5.6
same,corrected crypts/circumference,[2]; [14],3.0 and 3.6 and 2.5 and 2.1 and 4.8
same,no. crypts/circumference,[2]; [14],5.5 and 6.4 and 4.3 and 3.8 and 8.0
same,Protection Factor,[2]; [15],1.52
same,more crypts compared to mice treated with vehicle alone,"[2]; 13 Gy, 50 mg/kg foscarnet",~50%
same,more small intestinal clonogenic stem cells survived,"[2]; 13 Gy, 50 mg/kg foscarnet",at least 50%
same,Protection Factor,"[2]; 100 mg foscarnet -1 hr, 1, 2, 3 day",1.28
same,numbers of intestinal crypts after exposure to radiation,"[2]; Groups 1 and 2 (50 mg foscarnet and 100 mg foscarnet), 13 Gy",increased numbers of intestinal crypts
same,corrected crypts/circumference,[3]; [16],2.8
same,no. crypts/circumference,[3]; [16],5.7
same,corrected crypts/circumference,[3]; [17],1.4 and 2.0 and 2.7 and 4.4 and 3.0 and 3.3
same,no. crypts/circumference,[3]; [17],2.6 and 4.1 and 5.4 and 9.4 and 6.3 and 6.4
same,corrected crypts/circumference,[3]; [11],4.7
same,no. crypts/circumference,[3]; [11],8.8
same,corrected crypts/circumference,[3]; [12],6.5 and 4.4 and 2.7 and 1.9 and 5.4 and 7.5
same,no. crypts/circumference,[3]; [12],11.8 and 8.7 and 5.2 and 4.1 and 9.6 and 13.2
same,Protection Factor,"[3]; 25 mg foscarnet -1 hr, 1, 2, 3 day",1.12
same,Protection Factor,[3]; [15],1.88
same,more crypts compared to mice treated with vehicle alone,"[3]; 13 Gy, 50 mg/kg foscarnet",~50%
same,more small intestinal clonogenic stem cells survived,"[3]; 13 Gy, 50 mg/kg foscarnet",at least 50%
same,numbers of intestinal crypts after exposure to radiation,"[3]; Groups 1 and 2 (50 mg foscarnet and 25 mg foscarnet), 13 Gy",increased numbers of intestinal crypts
